Values of other authors, collected in US9079157B2, “Protein removal agent” (Thermo Fisher Scientific Baltics, UAB, priority 2012, dated 2015).

Tested on: enzymes
Details: referenced in the BRENDA database

First: O=C(O)CCC(=O)O [succinic, succinic acid]
Second: O=C(O)CCCC(=O)O [glutaric, glutaric acid]
The “Number of inhibited enzymes” value of the first is higher: 115 for the first, 25 for the second.

Going from `O=C(O)C(=O)O` [oxalic, oxalic acid] to `O=C(O)CC(=O)O` [malonic, malonic acid], the “Number of inhibited enzymes” value falls from 119 to 63.

Compared with `O=C(O)CCCCCCC(=O)O` [suberic, suberic acid], `O=C(O)CCCCCC(=O)O` [pimelic, pimelic acid] is higher in “Number of inhibited enzymes” value: 0 for the first, 3 for the second.

Compared with `O=C(O)CCCCC(=O)O` [adipic, adipic acid], `O=C(O)CC(O)(CC(=O)O)C(=O)O` [citric acid] is higher in “Number of inhibited enzymes” value: 10 for the first, 203 for the second.
